{"source": "patent US9763992B2", "about": "“Treatment of noise induced hearing loss” (Father Flanagan's Boys' Home, priority 2014, dated 2017)", "key": {"[1]": {"system": "TGF-β", "experiment": "qRT-PCR cytokine expression after noise exposure: TGF-β", "type": "in vivo, mouse", "conditions": "GA-treated mice, spleen tissues", "method": "(§1) To determine if GA affects cytokine expression, groups of mice received GA as described above, and cytokine expression was evaluated via RT-PCR.\n(§2) Using RT-PCR, the effects of GA on cytokine expression in the cochlea, specifically those mediators associated with pro- or anti-inflammatory activity, was established."}, "[2]": {"system": "TNF-alpha", "experiment": "qRT-PCR cytokine expression after noise exposure: TNF-alpha", "type": "in vivo, mouse", "conditions": "GA-treated mice, 10 days following noise exposure (Group 1), FIG. 7", "method": "as §1, §2"}, "[3]": {"system": "noise-induced hearing loss (NIHL) in CBA mice", "experiment": "ABR threshold recovery after traumatizing noise exposure in mice", "type": "in vivo, mouse", "method": "(§3) To determine if the glatiramer acetate (GA) prevents or reduces hearing loss in mice following exposure to traumatizing noise, following determination of baseline acoustic thresholds (i.e., pre-noise exposure thresholds), hearing sensitivity and input-output relationships was assessed during the post-noise exposure period using auditory evoked brainstem responses (ABRs) and distortion product otoacoustic emissions (DPOAEs); DPOAEs were studied using the same protocol as in ABR-based studies to separate findings associated with neural and sensory outcomes. Responses to tone burst stimuli was acquired immediately following noise exposure, daily during the early post-exposure period, and intermittently thereafter for six (6) months to generally assess the long-term outcome of exposure to traumatizing noise in CBA mice. Morphological correlates of final treatment outcomes, including sensory and support cell (cytocochleograms), synapses between hair cells and spiral ganglion dendrites, and SGN survival estimates, was made at the end of the acute phase (2 months following noise exposure) or at 6 months to assess long-term outcomes.\nThe traumatizing noise used in CBA mouse studies was an octave band of white noise centered on 11.3 kHz and was presented at 109 dB SPL for 30 min. Because of well-documented differences in the abilities of males and females to mount inflammatory responses, both males and females were included in this investigation.\nIn mice, GA (100 mg/kg) was administered following two treatment strategies. In Group 1, GA was administered in sequential doses one month and one week prior to noise exposure (the “protection” approach), with supplementary doses on a daily basis for the first 4 days following noise exposure and again on the 7th and 14th post-exposure days in mice, to determine if GA can prevent permanent hearing loss associated with traumatizing noise. In Group 2, GA was administered only during the post-noise exposure period in an effort to determine if GA can rescue hearing following acute trauma. In a subset of animals, GA was administered prior to noise exposure and then daily for the first ten post-exposure days. Complete Freund's adjuvant will be used to deliver the first dose of the agent to determine if GA actions might be potentiated (boosted) when delivered in an emulsified form in a separate group of mice.\nAn example of findings associated with this experimental design is shown in FIG. 2, in which families of ABR threshold-frequency curves (audiograms) generated by tracking sensitivity according to the “protection” protocol reviewed above in a GA-treated animal (right panel) and a saline-treated control (left panel) that were exposed to noise simultaneously are shown.\nWith this example, to determine if treatment with GA alone reduces the amount of temporary and permanent hearing loss and/or accelerates the rate of recovery from temporary threshold shift (TTS), groups of mice received GA or saline and were evaluated as described above."}, "[4]": {"system": "IL-17", "experiment": "qRT-PCR cytokine expression after noise exposure: IL-17", "type": "in vivo, mouse", "conditions": "GA-treated mice, 10 days following noise exposure (Group 1), FIG. 7", "method": "as §1, §2"}, "[5]": {"system": "interferon-gamma", "experiment": "qRT-PCR cytokine expression after noise exposure: interferon-gamma", "type": "in vivo, mouse", "conditions": "GA-treated mice, 10 days following noise exposure (Group 1), spleen tissues, FIG. 6", "method": "(§4) To determine if GA affects cytokine expression, groups of mice received GA as described above, and cytokine expression was evaluated via RT-PCR. […]"}, "[6]": {"system": "IL-2", "experiment": "qRT-PCR cytokine expression after noise exposure: IL-2", "type": "in vivo, mouse", "conditions": "GA-treated mice, 10 days following noise exposure (Group 1), FIG. 7", "method": "as §1, §2"}, "[7]": {"system": "noise-induced hearing loss (NIHL) in CBA mice", "experiment": "DPOAE input-output curves (outer hair cell function) after noise exposure in mice", "type": "in vivo", "conditions": "one GA-treated mouse relative to saline-treated; 14 days following noise exposure; f2=11.3 kHz; FIG. 4", "method": "as §3\nThe traumatizing noise used in CBA mouse studies was an octave band of white noise centered on 11.3 kHz and was presented at 109 dB SPL for 30 min. […]"}, "[8]": {"system": "IL-4", "experiment": "qRT-PCR cytokine expression after noise exposure: IL-4", "type": "in vivo, mouse", "conditions": "GA-treated mice, 10 days following noise exposure (Group 1), spleen tissues, FIG. 6", "method": "as §4"}}, "data": [{"substance": "Glatiramer acetate [GA]", "values": [{"measurement": "TGF-β expression", "setting": "[1]", "result": "up-regulation"}, {"measurement": "TNF-α expression", "setting": "[2]", "result": "down-regulated"}, {"measurement": "Total extent of recovery following exposure (cohort)", "setting": "[3]; GA cohort, control animals approximately 17 dB, FIG. 5", "result": "~25", "unit": "dB"}, {"measurement": "Threshold recovery during the first 10 days following exposure relative to saline-treated controls and GA-treated mice below criterion", "setting": "[3]; GA-treated mice with at least 3.4-fold IL-4 increase, stimulus frequencies within the noise band (8.0, 11.3 and 16.0 kHz), FIG. 9", "result": "greater"}, {"measurement": "Overall threshold recovery from NIHL relative to saline-treated controls and GA-treated mice below criterion", "setting": "[3]; GA-treated mice with at least 3.4-fold increase in IL-4 expression (criterion), FIG. 8", "result": "significantly greater"}, {"measurement": "Recovery with GA treatment alone compared with saline controls", "setting": "[3]; P<0.05", "result": "significantly enhanced"}, {"measurement": "Recovery from NIHL (ABR threshold-frequency curves)", "setting": "[3]; one GA-treated mouse, protection protocol, GA 100 mg/kg, frequencies at and immediately above noise centre frequency 11.3 kHz, first 14 days after exposure, FIG. 2, 3", "result": "nearly complete"}, {"measurement": "IL-17 expression", "setting": "[4]", "result": "down-regulated"}, {"measurement": "Interferon-gamma expression, reduction re controls", "setting": "[5]", "result": 66, "unit": "%"}, {"measurement": "IL-2 expression", "setting": "[6]", "result": "down-regulated"}, {"measurement": "Recovery of outer hair cell (OHC) function, DPOAE input-output curves", "setting": "[7]", "result": "nearly complete recovery"}, {"measurement": "Expression of anti-inflammatory cytokine IL-4, fold greater than controls", "setting": "[8]", "result": 2.6, "unit": "fold"}]}]}
